Patent US9745282B2, “Indoline compounds as aldosterone synthase inhibitors” (Merck Sharp & Dohme Corp., priority 2012, dated 2017)

Legend:
Format in all cases: cell-based
human CYP11B1 [1] = target: T1, human CYP11B1 (Homo sapiens (Human), UniProt P15538); assay: V79-Human-CYP11B1 cell assay; conditions: V79 cells expressing human CYP11B1; 250 nM 11-deoxycortisol; cortisol by HTRF
Procedure: (§1) V79 cell lines stably expressing the either the human CYP11B2 or the human CYP11B1 enzyme were generated using a standard transfection protocol. V79 cells were transfected with plasmids pTriEx3-Hygro-hCyp11B2 or pTriEx3-Hygro-hCyp11B1 using Lipofectamine2000 reagent. V79 cells that stably express the human CYP11B2 or human CYP11B1 enzyme were selected for and maintained in DMEM supplemented with 10% FBS and 400 μg/mL hygromycin for 2 weeks. Single cell clones were generated by infinite dilution in DMEM supplemented with 10% FBS and 400 μg/mL hygromycin until single colonies were obtained. Clones V79-hCYP11B2-CLE9 and V79-hCYP11B1-CL8C7, were determined to produce the most aldosterone and cortisol, respectively, and were selected for inhibitor screening. For testing of inhibitors, cells were harvested at 80% confluency with 0.05% Trypsan-EDTA, washed once in PBS, and reconstituted in DMEM+0.1% BSA media at a cell concentration of 600,000 cells/mL for the CYP11B2 assay and 280,000 cells/mL for the CYP11B1 assay. 25 μL of cells were added to a 384 well tissue culture treated plate and mixed with 0.3 μL of inhibitor or DMSO (1% final DMSO concentration) for 1 hour at 37° C., 5% CO2. After pre-incubation with inhibitor, the reaction was initiated by adding 5 μL of substrate (final concentration of 125 nM 11-deoxycorticosterone for the CYP11B2 assay or 250 nM 11-deoxycortisol for the CYP11B1 assay). The reaction was carried out for 3 hours at 37° C., 5% CO2 and was stopped by harvesting the supernatants. The amount of product in the supernatant (aldosterone for CYP11B2 assay and cortisol for the CYP11B1 assay) was measured using HTRF-based assay kit (Aldosterone HTRF-CisBio#64ALDPEB, Cortisol HTRF-CisBio #63IDC002-CORT). IC50s for the inhibitor were determined by plotting the amount of product formed against the concentration of inhibitor using sigmoidal dose-response curve (variable slope) fit in GraphPad.

human CYP11B2 [2] = target: T2, human CYP11B2 (Homo sapiens (Human), UniProt P19099); assay: V79-Human-CYP11B2 cell assay; conditions: V79 cells expressing human CYP11B2; 125 nM 11-deoxycorticosterone; aldosterone by HTRF
Procedure: as §1, with “Clones V79-hCYP11B2-CLE9 and V79-hCYP11B1-CL8C7, were determined to produce the most aldosterone and cortisol, respectively, and were selected for inhibitor screening.” left out

human CYP11B1 [3] = target: T1, human CYP11B1; assay: V79-Human-CYP11B1 cell assay, modified protocol; conditions: V79 cells expressing human CYP11B1
Procedure: as §1, with “Clones V79-hCYP11B2-CLE9 and V79-hCYP11B1-CL8C7, were determined to produce the most aldosterone and cortisol, respectively, and were selected for inhibitor screening.” left out
(§2) For the CYP11B2 assay, cells were reconstituted in DMEM+0.1% BSA media at a cell concentration of 600,000 cells/mL and for the CYP11B1 assay cells were reconstituted in DMEM+0.1% BSA media at a cell concentration of 280,000 cells/mL. 25 μl of cells were added to a 384 well tissue culture treated plate and mixed with […] or DMSO (1% final DMSO concentration) for 1 hour at 37° C., 5% CO2.

human CYP11B2 [4] = target: T2, human CYP11B2; assay: V79-Human-CYP11B2 cell assay, modified protocol; conditions: V79 cells expressing human CYP11B2
Procedure: as §1, with “Clones V79-hCYP11B2-CLE9 and V79-hCYP11B1-CL8C7, were determined to produce the most aldosterone and cortisol, respectively, and were selected for inhibitor screening.” left out
as §2

T2 sequence (P19099 25-503): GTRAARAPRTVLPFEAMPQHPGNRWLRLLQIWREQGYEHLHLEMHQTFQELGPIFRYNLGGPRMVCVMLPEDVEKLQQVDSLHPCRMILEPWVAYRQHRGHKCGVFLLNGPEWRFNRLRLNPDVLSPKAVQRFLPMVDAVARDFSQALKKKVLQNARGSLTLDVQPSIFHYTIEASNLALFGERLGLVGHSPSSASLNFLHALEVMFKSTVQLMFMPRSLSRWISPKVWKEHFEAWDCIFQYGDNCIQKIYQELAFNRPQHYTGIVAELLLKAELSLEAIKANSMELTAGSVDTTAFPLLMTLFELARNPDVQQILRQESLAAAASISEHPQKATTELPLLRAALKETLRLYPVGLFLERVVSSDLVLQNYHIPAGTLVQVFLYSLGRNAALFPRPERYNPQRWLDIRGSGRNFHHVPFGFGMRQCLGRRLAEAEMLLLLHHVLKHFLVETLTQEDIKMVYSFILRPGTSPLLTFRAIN
T1 sequence (P15538 25-503): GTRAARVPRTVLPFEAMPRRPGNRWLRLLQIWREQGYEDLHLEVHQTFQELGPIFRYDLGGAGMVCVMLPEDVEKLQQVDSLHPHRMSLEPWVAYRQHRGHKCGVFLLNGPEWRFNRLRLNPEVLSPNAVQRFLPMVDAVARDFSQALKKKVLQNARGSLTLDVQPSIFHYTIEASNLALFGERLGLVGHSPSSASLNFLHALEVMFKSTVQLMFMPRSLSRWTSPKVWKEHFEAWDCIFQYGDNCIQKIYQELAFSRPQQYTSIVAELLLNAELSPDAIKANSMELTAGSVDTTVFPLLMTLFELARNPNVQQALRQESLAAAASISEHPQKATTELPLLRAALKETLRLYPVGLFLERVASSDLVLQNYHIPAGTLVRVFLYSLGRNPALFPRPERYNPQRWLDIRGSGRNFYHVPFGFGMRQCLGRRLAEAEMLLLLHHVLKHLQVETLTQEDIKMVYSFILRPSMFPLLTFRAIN

Structure (SMILES)	IC50 (human CYP11B1 [1])	IC50 (human CYP11B2 [2])	IC50 (human CYP11B1 [3])	IC50 (human CYP11B2 [4])
CC(=O)N1CCc2cc(-c3cncc(F)c3)ccc21 [Example 1, 1-(5-(5-fluoropyridin-3-yl)indolin-1-yl)ethanone]	> 10 µM	0.11 µM		
CC(=O)N1CCc2cc(-c3cncc(F)c3)cc(Cl)c21 [Example 2, 1-(7-chloro-5-(5-fluoropyridine-3-yl)indolin-1-yl)ethanone]	7.9 µM	0.012 µM		
CC(=O)N1CCc2cc(-c3cnccc3C(F)(F)F)cc(Cl)c21 [Example 7, 1-(7-chloro-5-(4-(trifluoromethyl)pyridine-3-yl)indolin-1-yl)ethanone]	0.61 µM	0.005 µM		
CC(=O)N1CCc2cc(-c3cncc(C#N)c3C)cc(Cl)c21 [Example 10, 5-(1-acetyl-7-chloroindolin-5-yl) 4-methylnicotinotrile]	1.6 µM	0.035 µM		
CC(=O)N1CCc2cc(-c3cccnc3)cc(F)c21 [Example 12, 1-(7-fluoro-5-(pyridine-3-yl)indolin-1-yl) ethanone]	0.9 µM	0.0049 µM		
CC(=O)N1CCc2cc(-c3cncc(C#N)c3)cc(F)c21 [Example 16, 5-(1-acetyl-7-fluoroindolin-5-yl)nicotinonitrile]	> 10 µM	0.097 µM		
CC(=O)N1CCc2cc(-c3cncc(C#N)c3C)cc(F)c21 [Example 17, 5-(1-acetyl-7-fluoroindolin-5-yl)-4-methylnicotino nitrile]	0.54 µM	0.012 µM		
CC(=O)N1CCc2cc(-c3cncc(F)c3)cc(F)c21 [Example 18, 1-(7-fluoro-5-(5-fluoropyridine-3-yl)indolin-1-yl)-ethanone]	1.1 µM	0.015 µM		
CCC(=O)N1CCc2cc(-c3cccnc3)ccc21 [Example 21, 1-propanoyl-5-pyridin-3-yl-2,3-dihydro-1H-indole]			4.74 µM	0.228 µM
COc1ccc(C(=O)N2CCc3cc(-c4cccnc4)ccc32)cc1 [Example 25, 1-[(4-methoxy-phenyl)carbonyl]-5-pyridin-3-yl-2,3-dihydro-1H-indole]			> 5 µM	1.43 µM
O=C(Cc1ccccc1)N1CCc2cc(-c3cccnc3)ccc21 [Example 26, 1-(Phenylacetyl)-5-pyridin-3-yl-2,3-dihydro-1H-indole]			> 5 µM	3.07 µM
CCC(=O)N1CCc2cc(-c3cncc4ccccc34)ccc21 [Example 29, 4-(1-propanoyl-2,3-dihydro-1H-indol-5-yl)isoquinoline]			0.516 µM	0.0028 µM
O=C(C1CC1)N1CCc2cc(-c3cncc4ccccc34)ccc21 [Example 31, 4-[1-(cyclopropyl-carbonyl)-2,3-dihydro-1H-indol-5-yl]isoquinoline]			6.09 µM	0.152 µM
CC(=O)N1CCc2cc(-c3cccnc3)cc(Cl)c21 [Example 43, 1-(7-chloro-5-(pyridin-3-yl)indolin-1-yl)ethanone]	0.57 µM	0.0074 µM		
CC(=O)N1CCc2cc(-c3cncc(F)c3)c(Cl)cc21 [Example 45, 1-(6-chloro-5-(5-fluoropyridine-3-yl)indolin-1-yl)ethanone]	0.76 µM	0.81 µM		
CCc1c(F)cncc1-c1cc2c(cc1Cl)N(C(C)=O)CC2 [Example 46, 1-(6-chloro-5-(4-ethyl-5-fluoropyridine-3-yl)indolin-1-yl)ethanone]	0.78 µM	0.62 µM		
CC(=O)N1CCc2cc(-c3cncc(F)c3)c(F)cc21 [Example 48, 1-(6-fluoro-5-(5-fluoropyridin-3-yl)indolin-1-yl)ethanone]	> 10 µM			
CCc1c(F)cncc1-c1cc2c(cc1F)N(C(C)=O)CC2 [Example 49, 1-(5-(4-ethyl-5-fluoropyridin-3-yl)-6-fluoroindolin-1-yl)ethanone]	4 µM	0.17 µM		

More lines, now with the values ahead:

IC50 (human CYP11B1 [1])	IC50 (human CYP11B2 [2])	IC50 (human CYP11B1 [3])	IC50 (human CYP11B2 [4])	Structure (SMILES)
0.13 µM	0.0041 µM			COc1cncc(-c2cc(Cl)c3c(c2)CCN3C(C)=O)c1 [Example 3, 1-(7-chloro-5-(5-methoxypyridin-3-yl)indolin-1-yl)ethanone]
0.026 µM	0.0012 µM			CC(=O)N1CCc2cc(-c3cncc([C@](C)(O)C(F)(F)F)c3)cc(Cl)c21 [Example 4, (S)-1-(7-chloro-5-(5-(1,1,1,-trifluoro-2-hydroxypropan-2-yl)pydine-3-yl)indolin-1-yl)ethanone]
0.053 µM	0.0024 µM			CC(=O)N1CCc2cc(-c3cncc([C@@](C)(O)C(F)(F)F)c3)cc(Cl)c21 [Example 5, (R)-1-(7-chloro-5-(5-(1,1,1,-trifluoro-2hydroxypropan-2-yl)pyridine-3-yl)indolin-1-yl)ethanone]
0.4 µM	0.0075 µM			CC(=O)N1CCc2cc(-c3cncc(C(F)(F)F)c3)cc(Cl)c21 [Example 6, 1-(7-chloro-5-(5-(triuoromethyl)pyridine-3-yl)indolin-1-yl)ethanone]
0.4 µM	0.0023 µM			CCc1c(F)cncc1-c1cc(Cl)c2c(c1)CCN2C(C)=O [Example 9, 1-(7-chloro-5-(4-ethyl-5-fluoropyridin-3-yl)indolin-1-yl)ethanone]
0.06 µM	0.0007 µM			CC(=O)N1CCc2cc(-c3cncc4ccccc34)cc(Cl)c21 [Example 11, 1-(7-chloro-5-(isoquinolin-4-yl)indolin-1-yl)ethanone]
0.023 µM	0.0021 µM			CC(=O)N1CCc2cc(-c3cncc([C@](C)(O)C(F)(F)F)c3)cc(F)c21 [Example 13, (S)-1-(7-fluoro-5-(5-(1,1,1-trifluoro-2-hydroxypropan-2-yl)pyridin-3-yl)indolin-1-yl)ethanone]
0.013 µM	0.0008 µM			CC(=O)N1CCc2cc(-c3cncc([C@@](C)(O)C(F)(F)F)c3)cc(F)c21 [Example 14, (R)-1-(7-fluoro-5-(5-(1,1,1-trifluoro-2-hydroxypropan-2-yl)pyridin-3-yl)indolin-1-l)ethanone]
0.1 µM	0.001 µM			CC(=O)N1CCc2cc(-c3cncc(F)c3C)cc(F)c21 [Example 19, 1-(7-fluoro-5-(5-fluoro-4-methylpyridine-3-yl)indolin-1-yl)-ethanone]
0.5 µM	0.0016 µM			CCc1c(F)cncc1-c1cc(F)c2c(c1)CCN2C(C)=O [Example 20, 1-(5-(4-ethyl-5-fluoropyridine-3-yl)-7-fluoroindolin-1-yl)ethanone]
0.47 µM	0.64 µM			CC(=O)N1CCc2cc(-c3cccnc3)c(Cl)cc21 [Example 44, 1-(6-chloro-5-(pyridin-3-yl)indoline-1-yl)ethanone]
0.38 µM	0.18 µM			CC(=O)N1CCc2cc(-c3cccnc3)c(F)cc21 [Example 47, 1-(6-fluoro-5-(pyridin-3-yl)indon-1-yl)ethanone]
